Assay results published in ChEMBL document CHEMBL1201862, “PubChem BioAssay data set” (2004).
Calls of active or inactive are those of the source.

What was measured:
[1] = microbe, parasite or virus in culture; format: functional; details: Mycobacterium tuberculosis
Leucine aminopeptidase = target: T1, Leucine aminopeptidase (Plasmodium falciparum 3D7, UniProt Q8IL11); experiment: P. falciparum M17LAP inhibitors, primary screen, biochemical, fluorogenic H-Leu-NHMec substrate, 1536-well (AID 1619); format: functional
T1 sequence (Q8IL11 whole entry): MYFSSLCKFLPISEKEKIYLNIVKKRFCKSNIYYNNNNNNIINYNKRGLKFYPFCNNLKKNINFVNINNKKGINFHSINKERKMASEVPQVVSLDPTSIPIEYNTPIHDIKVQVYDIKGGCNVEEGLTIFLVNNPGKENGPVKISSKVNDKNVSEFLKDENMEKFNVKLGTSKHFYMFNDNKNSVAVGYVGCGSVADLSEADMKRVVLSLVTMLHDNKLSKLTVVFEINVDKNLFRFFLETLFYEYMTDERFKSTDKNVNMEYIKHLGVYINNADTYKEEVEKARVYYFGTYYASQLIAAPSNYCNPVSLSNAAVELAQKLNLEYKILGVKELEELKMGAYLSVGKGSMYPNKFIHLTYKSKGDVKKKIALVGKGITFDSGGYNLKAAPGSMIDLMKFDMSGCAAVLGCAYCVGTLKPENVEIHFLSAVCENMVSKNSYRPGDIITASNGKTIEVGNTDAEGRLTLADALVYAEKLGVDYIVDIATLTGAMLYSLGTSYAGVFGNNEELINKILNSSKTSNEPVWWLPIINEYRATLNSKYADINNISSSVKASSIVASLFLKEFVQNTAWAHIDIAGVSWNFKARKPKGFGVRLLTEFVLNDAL

[2] = inhibitors of clade B AD8 Env fusion, dose response, cell-based, cherry-pick (AID 652062); format: functional;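 further: luciferase signal from cell-cell fusion driven by HIV-1 clade B AD8 Env; potency is for inhibitors of fusion seen as a drop in luminescence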
HEK293 = experiment: inhibitors of LMP1-driven NF-kB reporter, dose response, cell-based, HEK293, luciferase, cherry-pick (AID 588343); format: functional; details: Homo sapiens
Nonstructural protein 1 = Nonstructural protein 1 (Influenza A virus, UniProt Q194T2); format: functional, Influenza A virus (A/California/07/2009(H1N1))
Chain of Nonstructural protein 1 (Q194T2 whole entry): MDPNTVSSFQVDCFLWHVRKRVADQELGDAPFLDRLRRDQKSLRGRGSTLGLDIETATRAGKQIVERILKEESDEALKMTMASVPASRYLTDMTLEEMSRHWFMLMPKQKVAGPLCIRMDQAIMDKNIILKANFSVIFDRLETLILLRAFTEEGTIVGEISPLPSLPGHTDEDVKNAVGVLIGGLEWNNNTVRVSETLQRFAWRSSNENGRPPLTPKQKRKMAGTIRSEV

[3] = target: T2, Rac GTPase-activating protein 1 (Homo sapiens, UniProt Q9H0H5); experiment: MgcRacGAP GTPase-activating activity inhibitors, confirmation, biochemical, ADP Hunter fluorescence, primary and confirmatory (AID 624330); format: functional
T2 sequence (Q9H0H5 whole entry): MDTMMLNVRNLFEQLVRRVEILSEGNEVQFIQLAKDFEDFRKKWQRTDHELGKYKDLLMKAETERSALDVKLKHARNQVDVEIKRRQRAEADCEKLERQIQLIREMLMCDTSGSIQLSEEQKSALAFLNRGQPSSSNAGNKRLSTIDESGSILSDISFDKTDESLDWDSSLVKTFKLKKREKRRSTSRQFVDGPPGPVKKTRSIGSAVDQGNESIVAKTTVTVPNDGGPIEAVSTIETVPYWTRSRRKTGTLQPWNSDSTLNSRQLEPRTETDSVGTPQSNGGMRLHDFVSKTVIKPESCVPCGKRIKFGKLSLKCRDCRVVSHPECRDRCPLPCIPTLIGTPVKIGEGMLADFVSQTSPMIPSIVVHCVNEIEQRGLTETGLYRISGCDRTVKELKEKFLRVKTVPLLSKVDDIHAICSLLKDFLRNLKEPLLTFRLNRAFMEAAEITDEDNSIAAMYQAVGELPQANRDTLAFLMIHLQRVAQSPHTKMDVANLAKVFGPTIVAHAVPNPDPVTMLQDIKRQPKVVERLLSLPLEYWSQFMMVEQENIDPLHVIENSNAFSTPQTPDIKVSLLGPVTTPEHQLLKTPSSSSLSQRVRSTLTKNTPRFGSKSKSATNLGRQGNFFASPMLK

cells [4] = format: functional, cell-based
cells [5] = format: functional, cell-based; remark: listed apart in the source
[6] = target: T3, Heat shock factor protein 1 (Mus musculus, UniProt P38532); experiment: inhibition of MG132-induced HSE-luciferase signal, confirmation, cell-based, NIH3T3, luminescence, dose retest (AID 2382); format: functional;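 further: NIH3T3 fibroblasts with HSF1-driven luciferase reporter stressed by proteasome inhibitor MG132; luminescence from HSF1-driven luciferase expression after 8 hours of MG132 stress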
T3 sequence (P38532 whole entry): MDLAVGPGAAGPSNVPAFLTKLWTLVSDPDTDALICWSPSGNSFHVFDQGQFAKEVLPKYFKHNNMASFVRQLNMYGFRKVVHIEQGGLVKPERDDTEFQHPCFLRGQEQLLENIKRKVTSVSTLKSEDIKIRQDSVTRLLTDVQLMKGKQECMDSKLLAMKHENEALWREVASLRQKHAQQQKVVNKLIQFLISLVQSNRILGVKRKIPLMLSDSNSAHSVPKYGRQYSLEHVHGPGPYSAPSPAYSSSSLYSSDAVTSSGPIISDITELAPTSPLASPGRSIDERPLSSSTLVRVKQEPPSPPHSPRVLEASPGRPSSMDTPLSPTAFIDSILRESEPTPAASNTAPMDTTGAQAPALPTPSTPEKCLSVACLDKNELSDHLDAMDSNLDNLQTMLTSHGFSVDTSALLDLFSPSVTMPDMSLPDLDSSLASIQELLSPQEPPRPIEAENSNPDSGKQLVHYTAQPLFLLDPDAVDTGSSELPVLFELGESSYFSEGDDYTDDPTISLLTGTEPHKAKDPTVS

Vero = experiment: cells; format: functional; details: Chlorocebus sabaeus
[7] = growth suppression of PTEN-null colon cells, dose response, cell-based, HCT116 PTEN knockout (AID 1047); format: functional;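 further: HCT116 colon tumor cells with PTEN knocked out; cells exposed to compound for 60 hours before readout; potency for loss of cell viability measured by luminescence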
[8] = growth suppression of beta-catenin-knockout colon cells, dose response, cell-based, HCT116, human colon tumor (AID 1045); format: functional;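 further: HCT116 colon tumor cells with beta catenin knocked out; cells exposed to compound for 60 hours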
[9] = Luminescence Cell-Based Dose Retest to Confirm Inhibitors of Cancer Stem Cells. [Related pubchem assays (depositor defined):AID2717, AID2721]; format: functional; details: Homo sapiens
[10] = HEp-2 cell cytotoxicity, dose response, cytotoxicity control for RSV inhibitor project, HTS (AID 2410); format: functional; details: human respiratory syncytial virus
[11] = C. albicans growth with fluconazole, confirmation, fluorescence, retest (AID 2467); format: functional, cell-based
[12] = NIH-3T3 fibroblast cytotoxicity, dose response, cytotoxicity control, cell-based, fluorescence, Alamar Blue, secondary assay (AID 2327); format: functional;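 further: NIH-3T3 mouse fibroblasts cultured with fluconazole at 8 µg/mL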
[13] = target: Heat shock protein HSP 90-alpha (Homo sapiens, UniProt P07900); format: functional, organism-based
Cytochrome P450 2C9 = Cytochrome P450 2C9 (Homo sapiens, UniProt P11712)
Chain of Cytochrome P450 2C9 (P11712 whole entry): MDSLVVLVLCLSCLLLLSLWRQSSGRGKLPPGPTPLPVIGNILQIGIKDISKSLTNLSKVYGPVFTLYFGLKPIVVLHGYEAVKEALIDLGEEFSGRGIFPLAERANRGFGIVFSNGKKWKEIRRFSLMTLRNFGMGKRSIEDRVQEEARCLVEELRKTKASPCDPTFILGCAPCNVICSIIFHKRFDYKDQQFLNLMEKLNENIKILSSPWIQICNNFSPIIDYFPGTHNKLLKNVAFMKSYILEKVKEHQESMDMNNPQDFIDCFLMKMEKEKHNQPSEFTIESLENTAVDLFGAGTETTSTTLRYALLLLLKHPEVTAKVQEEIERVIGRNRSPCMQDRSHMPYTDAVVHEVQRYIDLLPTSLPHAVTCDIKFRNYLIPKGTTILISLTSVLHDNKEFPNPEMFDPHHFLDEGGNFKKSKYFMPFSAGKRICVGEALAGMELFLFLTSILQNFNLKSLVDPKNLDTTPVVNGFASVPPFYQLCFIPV

Cytochrome P450 2D6 = Cytochrome P450 2D6 (Homo sapiens, UniProt P10635);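 further: CYP2D6 member of a cytochrome P450 panel assay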
Chain of Cytochrome P450 2D6 (P10635 whole entry): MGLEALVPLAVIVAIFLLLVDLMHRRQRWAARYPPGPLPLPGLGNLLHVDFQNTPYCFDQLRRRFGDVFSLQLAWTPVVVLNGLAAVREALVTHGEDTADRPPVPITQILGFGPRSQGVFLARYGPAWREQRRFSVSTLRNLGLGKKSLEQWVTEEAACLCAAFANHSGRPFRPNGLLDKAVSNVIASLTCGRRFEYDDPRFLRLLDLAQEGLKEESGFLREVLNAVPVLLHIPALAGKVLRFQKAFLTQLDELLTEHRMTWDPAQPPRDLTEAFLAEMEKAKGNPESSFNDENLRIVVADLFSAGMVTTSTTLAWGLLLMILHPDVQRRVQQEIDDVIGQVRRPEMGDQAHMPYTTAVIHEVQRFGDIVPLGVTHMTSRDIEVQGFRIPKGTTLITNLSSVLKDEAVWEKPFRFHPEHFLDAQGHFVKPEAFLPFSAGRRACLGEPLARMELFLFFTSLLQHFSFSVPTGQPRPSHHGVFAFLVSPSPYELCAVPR

Aminopeptidase N = target: T4, Aminopeptidase N (Plasmodium falciparum FcB1/Columbia, UniProt O96935); experiment: P. falciparum M1AAP inhibitors, biochemical, fluorogenic H-Leu-NHMec substrate, 1536-well (AID 1445); parameters: species or system Plasmodium falciparum 3D7, 3D7
T4 sequence (O96935 whole entry): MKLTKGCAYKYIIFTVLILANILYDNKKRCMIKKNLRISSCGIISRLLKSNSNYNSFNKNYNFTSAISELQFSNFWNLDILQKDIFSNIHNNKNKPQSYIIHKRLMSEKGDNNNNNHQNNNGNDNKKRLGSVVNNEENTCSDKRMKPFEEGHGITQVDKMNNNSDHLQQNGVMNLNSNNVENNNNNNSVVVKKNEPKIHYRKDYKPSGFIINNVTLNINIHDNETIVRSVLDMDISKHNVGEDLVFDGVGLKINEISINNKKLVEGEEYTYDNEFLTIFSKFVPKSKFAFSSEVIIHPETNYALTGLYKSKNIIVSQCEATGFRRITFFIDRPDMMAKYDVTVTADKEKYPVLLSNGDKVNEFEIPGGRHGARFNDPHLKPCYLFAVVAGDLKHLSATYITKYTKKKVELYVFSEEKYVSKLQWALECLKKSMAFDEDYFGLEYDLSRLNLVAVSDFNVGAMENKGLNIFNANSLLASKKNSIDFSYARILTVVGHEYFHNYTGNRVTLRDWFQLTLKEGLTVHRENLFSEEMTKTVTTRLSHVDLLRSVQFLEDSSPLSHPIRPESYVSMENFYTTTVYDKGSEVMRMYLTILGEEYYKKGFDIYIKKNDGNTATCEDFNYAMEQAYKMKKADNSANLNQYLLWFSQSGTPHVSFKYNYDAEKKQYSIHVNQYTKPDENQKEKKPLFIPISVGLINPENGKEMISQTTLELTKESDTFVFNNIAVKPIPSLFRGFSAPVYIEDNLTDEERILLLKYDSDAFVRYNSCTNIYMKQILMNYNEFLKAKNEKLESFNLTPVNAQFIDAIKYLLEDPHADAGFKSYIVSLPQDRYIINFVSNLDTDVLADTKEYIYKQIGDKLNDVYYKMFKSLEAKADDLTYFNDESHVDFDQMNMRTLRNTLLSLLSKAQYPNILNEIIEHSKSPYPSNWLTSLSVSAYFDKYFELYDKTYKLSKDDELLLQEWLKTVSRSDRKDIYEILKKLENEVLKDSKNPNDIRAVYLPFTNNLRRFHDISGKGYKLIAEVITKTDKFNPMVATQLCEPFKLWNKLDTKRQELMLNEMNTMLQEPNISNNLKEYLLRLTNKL

CCC(=O)NC(=S)Nc1ccc(NC(=O)COc2ccc(Cl)cc2Cl)cc1
CC50 [1]: 39.6 µM (active)

O=C(CSc1nnc(NC(=O)c2c(F)cccc2F)s1)Nc1ccc(F)cc1
IC50 (Leucine aminopeptidase): 32.3 µM (active)

Cc1onc(-c2ccccc2)c1C(=O)Nc1ccc(Br)cc1Cl
AC50 [2]: 3.43 µM (active)

CNS(=O)(=O)c1cccc(C(=O)OCC(=O)c2ccc3c(c2)OCCO3)c1
AC50 (HEK293): 8.57 µM (active)

O=C(CNCc1ccccn1)N1CCc2ccccc2C1
IC50 (Nonstructural protein 1): 3.54 µM (active)
IC50 [3]: 177 µM (active)

Cc1ccc(CNC(=O)NC2CCCCC2)cc1
EC50 (cells [4]): 55 µM (active)
EC50 (cells [5]): > 350 µM (not active)

CC(c1ccccc1)N1CCN(C(=O)CCl)CC1 (stereo not drawn)
EC50 [6]: 43.8 µM (active)
CC50 (Vero): 9.03 µM (active)
CC50 [1]: 17.9 µM (active)

C=CCn1cccc(/C=C/C(=O)c2ccc(C(C)(C)C)cc2)c1=S
EC50 [7]: 4.04 µM (active)
EC50 [8]: 2.56 µM (active)
CC50 [1]: 10.3 µM (active)
AC50 [9]: 5.64 µM (active)

N#Cc1ncc(N=Cc2ccc(N(CCCl)CCCl)cc2)s1
AC50 (HEK293): 1.22 µM (active)

O=C(N/N=C/c1ccccn1)c1cc(-c2ccc(Cl)cc2)nc2ccccc12
CC50 [10]: 11.8 µM (active)
EC50 [11]: 1.06 µM (active)
EC50 [12]: 20.6 µM (active)
AC50 [13]: 7.9 µM (active)
CC50 (Vero): 14.2 µM (active)

CSc1ccc(N/N=C(/C#N)S(=O)(=O)C(C)(C)C)cc1
IC50 (Leucine aminopeptidase): 30.6 µM (active)

O=C(O)c1ccc(N/N=C/c2ccc(C(F)(F)F)cc2)cc1
IC50 (Leucine aminopeptidase): 46.3 µM (active)

COc1ccc2ccccc2c1/C=N/Nc1cccc(C(=O)O)c1
EC50 (cells [4]): 16.8 µM (active)
EC50 (cells [5]): > 350 µM (not active)

CCOc1ccc(-c2c(C(=O)N/N=C/c3cccnc3)nnn2-c2nonc2N)cc1
EC50 (cells [4]): > 350 µM (not active)
EC50 (cells [5]): > 350 µM (not active)

Cc1ccc(C(=O)N/N=C/c2sc(=O)n(Cc3cccc(C(=O)O)c3)c2Cl)cc1
AC50 (Cytochrome P450 2C9): 12.6 µM (inconclusive)
IC50 (Leucine aminopeptidase): 17.8 µM (active)

CCCCOc1ccc(CC(=O)NO)cc1 [BUFEXAMAC]
EC50 [6]: > 195 µM (not active)
IC50 (Leucine aminopeptidase): < 1 µM (active)
AC50 (Cytochrome P450 2D6): 10 µM (inconclusive)
IC50 (Aminopeptidase N): 81.2 µM (active)
